These results are taken from paper PMC4015874, “Effects of Allium victorialis leaf extracts and its single compounds on aldose reductase, advanced glycation end products and TGF-β1 expression in mesangial cells” (BMC Complementary and Alternative Medicine, 2013).

The structures appear in SMILES notation. “Also recorded” adds a separate entry of the source.

Assay [1] has as its target T1, crude rat lens AR (aldose reductase) (Rattus norvegicus, UniProt P07943).
T1 construct: the supernatant was used as crude rat lens AR; from tissue; host or cells: lens of 8-week-old Sprague-Dawley rats (supernatant of the homogenate)
The assay can be described thus: Rat lens AR activity. Type of assay: biochemical. Here is the method: AR activity was measured as described previously. All animal procedures were approved by the Korea Institute of Oriental Medicine Institutional Animal Care Committee on animal care at our institute and conducted according to institutional guidelines. […] The homogenate was centrifuged at 14,000 rpm for 30 min, and the supernatant was used as crude rat lens AR. […] The reaction was initiated by the addition of NADPH at 37°C and stopped by the addition of 0.15 ml of 0.5 N HCl. Next, 0.5 ml of 6 M NaOH containing 10 mM imidazole was added, and the solution was heated at 60°C for 15 min to convert NADP to a fluorescent product.

A further assay relates to AGEs formation. Nature of the assay: AGEs formation assay (BSA with fructose and glucose, fluorescence). The conditions noted are these: BSA with 0.2 M fructose and glucose, 37°C, 7 days. In kind it is biochemical. The protocol:
AGEs formation assay was performed as previously described. Bovine serum albumin (BSA, 10 mg/ml, Sigma-Aldrich) in 50mM phosphate buffer (pH 7.4) with containing 0.02% sodium azide to prevent bacterial growth was added to 0.2 M fructose and glucose. The reaction mixture was then mixed with compounds or aminoguanidine (AG, Sigma-Aldrich). After incubating at 37°C for 7 days, the fluorescent reaction products were assayed on a spectrofluorometric detector (BIO-TEK, Synergy HT, Ex: 350 nm/Em: 450 nm). AGEs assay was performed in quadruplicate.

For a further assay, the target named is T2, human RAGE (hRAGE) (Homo sapiens, UniProt Q15109).
T2 construct: expressed in transfected cells; host or cells: mouse kidney mesangial cells (MMCs) overexpressing hRAGE
T2 sequence (Q15109 23-404): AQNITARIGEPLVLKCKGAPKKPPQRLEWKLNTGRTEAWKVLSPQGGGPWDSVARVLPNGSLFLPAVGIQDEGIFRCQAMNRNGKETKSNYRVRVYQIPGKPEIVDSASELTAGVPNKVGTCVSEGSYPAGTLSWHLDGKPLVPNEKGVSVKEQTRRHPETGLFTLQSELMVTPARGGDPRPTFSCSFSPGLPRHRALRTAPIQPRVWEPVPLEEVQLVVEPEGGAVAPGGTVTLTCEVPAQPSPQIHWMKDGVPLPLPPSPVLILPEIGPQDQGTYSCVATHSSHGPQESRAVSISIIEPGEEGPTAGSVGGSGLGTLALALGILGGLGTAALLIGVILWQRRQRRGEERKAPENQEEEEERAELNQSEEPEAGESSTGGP
The assay can be described thus: Live cell-based AGE-BSA/RAGE binding in hRAGE-overexpressing cells. The conditions noted are these: hRAGE-overexpressing MMCs, Alexa Fluor 488-labeled AGE-BSA, 6 h. The protocol: AGE-BSA/RAGE binding in the cells was determined as described previously. Briefly, Alexa 488 labeling of AGE-BSA was performed using the Alexa Fluor® 488 protein labeling kit (Molecular Probes, Eugene, OR). For the binding assay, human RAGE-overexpressing cells (1×10^4) were seeded onto a 96-well assay plate with a clear bottom lid and black plate (Corning, NY) and incubated with serum-free media for 24 h. Before binding, 3% BSA was added for 30 min to block non-specific binding. Cells were treated with 5 μg of Alexa Fluor 488-labeled AGE-BSA in a total volume of 100 μl serum-free medium and incubated in the dark for 6 h in a 5% CO2 humidified atmosphere at 37°C. Compounds were added after the addition of AGE-BSA-Alexa Fluor 488 to hRAGE-overexpressing cells. The non-specific binding of AGE-BSA-Alexa Fluor 488 to cell surface proteins other than hRAGE was compared by incubating cells with untreated cells (blank). After binding, 100 μl Opti-MEM were added to the washed plates, and the plates were then analyzed using a microtiter plate reader (Bio-Tek, Winooski, VT) with excitation and emission wavelengths of 485 and 528 nm, respectively.

For assay [2], the system named is TGF-β1 mRNA expression in mouse kidney mesangial cells (MMCs). The assay can be described thus: High glucose-induced TGF-β1 mRNA expression in MMCs (RT-PCR). Type of assay: cell-based. As to conditions: high glucose 48 h, 10 μM compound. The protocol:
Mouse kidney mesangial cells (SV40 MES13, MMC) were obtained from the American Type Culture Collection (#CRL-1927, Rockville, MD) and cultured in Dulbecco's modified Eagle's medium:F-12 (3:1) supplemented with 14 mM HEPES, penicillin 100 U/ml, streptomycin 100 μg/ml, and 5% fetal bovine serum. Cells were routinely grown to confluence in a humidified 37°C, 5% CO2 incubator.
Total cellular RNA was extracted with TRIzol (Invitrogen, Carlsbad, CA), quantified by measuring the absorbance at 260 nm, and stored at -80°C until analysis. The expression of TGF-β1 and GAPDH mRNAs was detected by RT-PCR analysis. The extracted RNA (1 μg) was subjected to a reverse transcriptase reaction with the Maxime RT premix (Intron, Daejeon, Korea) at 42°C for 60 min and 72°C for 10 min. Subsequently, semi-quantitative PCR was performed with Accupower® PCR premix (Intron, Daejeon, Korea). The primer sequences were as follows: mouse TGF-β1 (sense) 5’- TGAACCAAGGAGACGGAATACAGG -3’, (anti-sense) 5'- GCCATGAGGAGCAGGAAGGG -3’ and mouse GAPDH (sense) 5’- ACGGCAAATTCAACGGCACAG -3’, (anti-sense) 5’- AGACTCCACGACATACTCAGCAC -3’. Aliquots of PCR products were electrophoresed on 1.2% agarose gels and visualized after ethidium bromide staining.

For assay [3], the system named is secreted TGF-β1 in mouse kidney mesangial cells (MMCs). The assay can be described thus: High glucose-induced TGF-β1 secretion in MMCs (ELISA). As to conditions: high glucose 48 h, 10 μM compound, ELISA of medium. Type of assay: cell-based. Here is the method:
Mouse kidney mesangial cells (SV40 MES13, MMC) were obtained from the American Type Culture Collection (#CRL-1927, Rockville, MD) and cultured in Dulbecco's modified Eagle's medium:F-12 (3:1) supplemented with 14 mM HEPES, penicillin 100 U/ml, streptomycin 100 μg/ml, and 5% fetal bovine serum. Cells were routinely grown to confluence in a humidified 37°C, 5% CO2 incubator. The levels of TGF-β1 in the medium were determined as described previously. […] This medium was then harvested and TGF-β1 was activated by treatment with 1 N HCl (0.1 ml/0.5 ml of conditioned media) for 10 min at room temperature, then 0.1 ml 1.2 N NaOH/0.5 M HEPES was added. Quantikine mouse TGF-β1 ELISA (R&D systems, Minneapolis, MN) was performed according to the manufacturer’s protocol, and the TGF-β1 levels were normalized to those of total protein.

`O=c1c(O[C@@H]2O[C@H](CO)[C@@H](O)[C@H](O)[C@H]2O)c(-c2ccc(O[C@@H]3O[C@H](CO)[C@@H](O)[C@H](O)[C@H]3O)cc2)oc2cc(O[C@@H]3O[C@H](CO)[C@@H](O)[C@H](O)[C@H]3O)cc(O)c12` [Compound 1, Kaempferol 3,7,4’-O-β-D-triglucopyranoside]: the IC50 in assay [1] (DL-glyceraldehyde substrate) is greater than 50 µM; in the assay with AGEs formation it was greater than 100 µM.

With `O=c1c(O[C@@H]2O[C@H](CO)[C@@H](O)[C@H](O)[C@H]2O)c(-c2ccc(O[C@@H]3O[C@H](CO)[C@@H](O)[C@H](O)[C@H]3O)cc2)oc2cc(O)cc(O)c12` [Compound 3, kaempferol 3,4’-O-β-D-diglucopyranoside], the IC50 in assay [1] (DL-glyceraldehyde substrate) was 9.77 ± 0.33 µM; in the assay on AGEs formation it was 59.7 ± 1.22 µM.

As for `O=c1c(O)c(-c2ccc(O)cc2)oc2cc(O)cc(O)c12` [Compound 5, kaempferol], the “AR inhibitory potency compared with positive control TMG” value in assay [1] is on record as “significantly more potent”. The IC50 in assay [1] (DL-glyceraldehyde substrate) turned out to be 1.1 ± 0.63 µM; in the assay with AGEs formation, 36 ± 1.4 µM.

For `C[C@@H]1O[C@@H](Oc2c(-c3ccc(O)c(O)c3)oc3cc(O)cc(O)c3c2=O)[C@H](O)[C@H](O)[C@H]1O` [Compound 4, quercitrin], the “AR inhibitory potency compared with positive control TMG” value in assay [1] is “significantly more potent”. For the same molecule, the IC50 in assay [1] (DL-glyceraldehyde substrate) worked out at 0.17 ± 0.1 µM; in the assay with AGEs formation it was 4.2 ± 0.04 µM. Also, the “Inhibition of AGE-RAGE binding” value on human RAGE (hRAGE) is “significantly inhibited”; on human RAGE (hRAGE) (listed as quercitrin), “disrupted AGE-RAGE binding in a concentration-dependent manner”.

Regarding `O=c1c(O[C@@H]2O[C@H](CO)[C@@H](O)[C@H](O)[C@H]2O)c(-c2ccc(O)cc2)oc2cc(O[C@@H]3O[C@H](CO)[C@@H](O)[C@H](O)[C@H]3O)cc(O)c12` [Compound 2, Kaempferol 3,7-O-β-D-diglucopyranoside], the concentration for half-maximal inhibition (IC50) in assay [1] (DL-glyceraldehyde substrate) is greater than 50 µM; in the assay with AGEs formation, 56.4 ± 1.39 µM.

For `O=C(O)CC1(CC(=O)O)CCCC1` [Tetramethyleneglutaric acid, 3,3-tetramethyleneglutaric acid, reference compound], in assay [1] (DL-glyceraldehyde substrate), the “AR IC50” value is 0.94 ± 0.01 µg/mL and the IC50 amounted to 5.07 ± 0.06 µM.

Take `O=c1c(O)c(-c2ccc(O)c(O)c2)oc2cc(O)cc(O)c12` [Compound 6, quercetin]: the “AR inhibitory potency compared with positive control TMG” value in assay [1] is on record as “significantly more potent”. Moreover, in the assay with AGEs formation, the IC50 came out at 27.1 ± 0.11 µM.

On to `O=C(O)C=Cc1ccc(O)cc1` [Compound 7, 4-hydroxycinnamic acid], for which the half-inhibitory concentration (IC50) is greater than 50 µM in assay [1] (DL-glyceraldehyde substrate) and 9.92 ± 0.11 µM in the assay on AGEs formation.

On to `N=C(N)NN` [Aminoguanidine, aminoguanidine, reference compound], for which, in the assay on AGEs formation, the “AGEs IC50” value worked out at 76.47 ± 4.81 µg/mL and the IC50 was found to be 1030 ± 70 µM.

As to `COc1cc(/C=C/C(=O)O)ccc1O` [Compound 8, ferulic acid], the results for the half-inhibitory concentration (IC50) (in assay [1] (DL-glyceraldehyde substrate); with AGEs formation) were greater than 50 µM and 7.5 ± 0.2 µM, respectively. For the same molecule, the “Inhibition of high glucose-induced TGF-β1 mRNA expression” value in assay [2] is reported as “greatest inhibitory effect”; in assay [2] (listed as ferulic acid) it was “significantly reduced; also recorded: reduces”. Besides, the “Inhibition of high glucose-induced TGF-β1 secretion” value in assay [3] is on record as “significantly reduced; also recorded: reduces”.
